Converted amounts (≈) assume the structure as drawn.
Columns and labels:
Assay type in all cases: functional
Staphylococcus aureus = test: Minimum Inhibitory concentration against Staphylococcus aureus (CECT240)
Escherichia coli = test: Minimum inhibitory concentration against Escherichia coli (CECT405)
Proteus mirabilis = test: Minimum inhibitory concentration against Proteus mirabilis (CECT170)
Pseudomonas aeruginosa = test: Minimum inhibitory concentration against Pseudomonas aeruginosa (CECT108)

Row | Molecule | MIC90 (Staphylococcus aureus) [µg/mL] | MIC90 (Escherichia coli) [µg/mL] | MIC90 (Proteus mirabilis) [µg/mL] | MIC90 (Pseudomonas aeruginosa) [µg/mL]
1 | COc1cc2ccc(=O)oc2c(O[C@@H]2O[C@H](CO)[C@@H](O)[C@H](O)[C@H]2O)c1O [FRAXINE] | 1450 (≈ 3920 µM) | 1450 (≈ 3920 µM) | 1450 (≈ 3920 µM) | 1450 (≈ 3920 µM)
2 | O=C(O)c1cccnc1Nc1cccc(C(F)(F)F)c1 [NIFLUMIC ACID] | 160 (≈ 567 µM) | 1800 (≈ 6380 µM) | 1800 (≈ 6380 µM) | 
3 | SILYMARIN | 80 |  | 700 | 200
4 | COc1ccc([C@@H]2CC(=O)c3c(O)cc(O[C@@H]4O[C@H](CO[C@@H]5O[C@@H](C)[C@H](O)[C@@H](O)[C@H]5O)[C@@H](O)[C@H](O)[C@H]4O)cc3O2)cc1O [HESPERIDIN] | 8 (≈ 13.1 µM) |  |  | 25 (≈ 40.9 µM)
5 | CC(=O)Nc1cc(C)cc(/N=N/c2cc([N+](=O)[O-])cc([N+](=O)[O-])c2O)c1O | 130 (≈ 346 µM) | 130 (≈ 346 µM) | 130 (≈ 346 µM) | 130 (≈ 346 µM)

Further lines, results first:

Row | MIC90 (Staphylococcus aureus) [µg/mL] | MIC90 (Escherichia coli) [µg/mL] | MIC90 (Proteus mirabilis) [µg/mL] | MIC90 (Pseudomonas aeruginosa) [µg/mL] | Molecule
6 | 120 (≈ 397 µM) | 1380 (≈ 4570 µM) | 120 (≈ 397 µM) | 120 (≈ 397 µM) | O=c1c(O)c(-c2ccc(O)cc2O)oc2cc(O)cc(O)c12 [MORIN]
7 | 100 (≈ 309 µM) | 10 (≈ 30.9 µM) | 100 (≈ 309 µM) | 100 (≈ 309 µM) | O=C(N[C@H](CO)[C@H](O)c1ccc([N+](=O)[O-])cc1)C(Cl)Cl [CHLORAMPHENICOL]
8 | 300 (≈ 491 µM) | 300 (≈ 491 µM) | 300 (≈ 491 µM) | 300 (≈ 491 µM) | COc1ccc([C@@H]2CC(=O)c3c(O)cc(O[C@@H]4O[C@H](CO)[C@@H](O)[C@H](O)[C@H]4O[C@@H]4O[C@@H](C)[C@H](O)[C@@H](O)[C@H]4O)cc3O2)cc1O [NEOHESPERIDIN]

From ChEMBL document CHEMBL1133303, “Molecular topology: a useful tool for the search of new antibacterials” (2000)
